Test results: US10800792B2, “Inhibitors of Bruton's tyrosine kinase and method of their use” (JANSSEN PHARMACEUTICA NV, priority 2015, dated 2020)

The compounds below were run against unphosphorylated-BTK kinase domain (UP-BTK), GST-tagged human BTK (389-659aa) (Homo sapiens (Human), UniProt Q06187) (assay: BTK kinase Lanthascreen binding assay). Details: Lanthascreen tracer competition, 60 minutes incubation; pIC50 = negative log of the IC50 in molar.
In short: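 A fluorescent tracer is bound to unphosphorylated BTK; test compound is added to compete it off; the Lanthascreen signal is read and IC50 is fitted, then reported as its negative log in molar.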

Chain of unphosphorylated-BTK kinase domain (UP-BTK), GST-tagged human BTK (389-659aa) (Q06187 389-659): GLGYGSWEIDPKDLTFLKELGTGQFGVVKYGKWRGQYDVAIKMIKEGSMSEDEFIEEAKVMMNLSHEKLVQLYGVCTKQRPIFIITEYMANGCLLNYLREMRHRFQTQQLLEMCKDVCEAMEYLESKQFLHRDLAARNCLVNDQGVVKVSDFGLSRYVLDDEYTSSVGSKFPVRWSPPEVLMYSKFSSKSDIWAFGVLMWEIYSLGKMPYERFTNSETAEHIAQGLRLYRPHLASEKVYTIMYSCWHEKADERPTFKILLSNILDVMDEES

**Q.** `C=CC(=O)N1CCC[C@@H](NC(=O)c2sc3nccc4c3c2NC(=O)N4c2ccc(OC3CCC3)cc2C)C1` (single isomer, unassigned) [Example 609, (R)—N-(1-Acryloylpiperidin-3-yl)-5-(*S)-(4-cyclobutoxy-2-methylphenyl)-4-oxo-4,5-dihydro-3H-1-thia-3,5,8-triazaacenaphthylene-2-carboxamide] was tested. Which “BTK_I_binding pIC50” value did it give?
**A.** 6.3

**Q.** How did the “BTK_I_binding pIC50” value turn out when `C=CC(=O)N1CCC[C@@H](NC(=O)c2sc3nccc4c3c2NC(=O)N4c2cnc(Oc3ccccc3)cc2C)C1` (single isomer, unassigned) [Example 662, (R)—N-(1-Acryloylpiperidin-3-yl)-5-(*S)-(4-methyl-6-phenoxypyridin-3-yl)-4-oxo-4,5-dihydro-3H-1-thia-3,5,8-triazaacenaphthylene-2-carboxamide] was run?
**A.** 8.1

**Q.** Which “BTK_I_binding pIC50” value does the source give for `C=CC(=O)N1CC[C@@H](NC(=O)c2sc3nccc4c3c2NC(=O)N4c2cnc(Oc3ccccc3)cc2C)C1` (single isomer, unassigned) [Example 663, (R)—N-(1-Acryloylpyrrolidin-3-yl)-5-(*S)-(4-methyl-6-phenoxypyridin-3-yl)-4-oxo-4,5-dihydro-3H-1-thia-3,5,8-triazaacenaphthylene-2-carboxamide] here?
**A.** 8.0

**Q.** How did the “BTK_I_binding pIC50” value turn out when `C=CC(=O)N1CC[C@@H](NC(=O)c2sc3nccc4c3c2NC(=O)N4c2cnc(Oc3ccccc3)nc2C)C1` (single isomer, unassigned) [Example 664, (R)—N-(1-Acryloylpyrrolidin-3-yl)-5-(*S)-(4-methyl-2-phenoxypyrimidin-5-yl)-4-oxo-4,5-dihydro-3H-1-thia-3,5,8-triazaacenaphthylene-2-carboxamide] was run?
**A.** 7.6

**Q.** Which “BTK_I_binding pIC50” value does the source give for `C=CC(=O)N1CC[C@@H](NC(=O)c2sc3nccc4c3c2NC(=O)N4c2ccc(Oc3ccccc3)nc2C)C1` (single isomer, unassigned) [Example 666, (R)—N-(1-Acryloylpyrrolidin-3-yl)-5-(*R)-(2-methyl-6-phenoxypyridin-3-yl)-4-oxo-4,5-dihydro-3H-1-thia-3,5,8-triazaacenaphthylene-2-carboxamide] here?
**A.** 6.3

**Q.** For `C=CC(=O)N1CCC[C@@H](NC(=O)c2sc3nccc4c3c2NC(=O)N4c2ccnc(-c3ccccc3)c2C)C1` (single isomer, unassigned) [Example 676, (R)—N-(1-Acryloylpiperidin-3-yl)-5-(*R)-(3-methyl-2-phenylpyridin-4-yl)-4-oxo-4,5-dihydro-3H-1-thia-3,5,8-triazaacenaphthylene-2-carboxamide], which “BTK_I_binding pIC50” value is on record?
**A.** 7.6

**Q.** `C=CC(=O)N1CCC[C@@H](NC(=O)c2sc3nccc4c3c2NC(=O)N4c2ccc(OC3CCC3)nc2C)C1` (single isomer, unassigned) [Example 682, (R)—N-(1-Acryloylpiperidin-3-yl)-5-(*S)-(6-cyclobutoxy-2-methylpyridin-3-yl)-4-oxo-4,5-dihydro-3H-1-thia-3,5,8-triazaacenaphthylene-2-carboxamide] was tested. Which “BTK_I_binding pIC50” value did it give?
**A.** 7.3

**Q.** For `Cc1cc(Oc2ccccc2)ncc1N1C(=O)Nc2c(C(=O)N[C@@H]3CCNC3)sc3nccc1c23` (single isomer, unassigned) [Example 702, (R)-5-(*S)-(4-Methyl-6-phenoxypyridin-3-yl)-4-oxo-N-(pyrrolidin-3-yl)-4,5-dihydro-3H-1-thia-3,5,8-triazaacenaphthylene-2-carboxamide], which “BTK_I_binding pIC50” value is on record?
**A.** 6.8

**Q.** How did the “BTK_I_binding pIC50” value turn out when `Cc1nc(Oc2ccccc2)ncc1N1C(=O)Nc2c(C(=O)N[C@@H]3CCNC3)sc3nccc1c23` (single isomer, unassigned) [Example 715, (R)-5-(*S)-(4-Methyl-2-phenoxypyrimidin-5-yl)-4-oxo-N-(pyrrolidin-3-yl)-4,5-dihydro-3H-1-thia-3,5,8-triazaacenaphthylene-2-carboxamide] was run?
**A.** 6.3

**Q.** `Cc1nc(Oc2ccccc2)ccc1N1C(=O)Nc2c(C(=O)N[C@@H]3CCNC3)sc3nccc1c23` (single isomer, unassigned) [Example 717, (R)-5-(*S)-(2-Methyl-6-phenoxypyridin-3-yl)-4-oxo-N-(pyrrolidin-3-yl)-4,5-dihydro-3H-1-thia-3,5,8-triazaacenaphthylene-2-carboxamide] was tested. Which “BTK_I_binding pIC50” value did it give?
**A.** 6.4

**Q.** Which “BTK_I_binding pIC50” value does the source give for `C=CC(=O)N1CC[C@@H](NC(=O)c2sc3nccc4c3c2NC(=O)N4c2cnc(Oc3ccccc3)nc2C)C1` (single isomer, unassigned) [Example 724, (R)—N-(1-Acryloylpyrrolidin-3-yl)-5-(*R)-(4-methyl-2-phenoxypyrimidin-5-yl)-4-oxo-4,5-dihydro-3H-1-thia-3,5,8-triazaacenaphthylene-2-carboxamide] here?
**A.** 6.1

**Q.** For `Cc1nc(Oc2ccccc2)ccc1N1C(=O)Nc2c(C(=O)N[C@@H]3CCNC3)sc3nccc1c23` (single isomer, unassigned) [Example 728, (R)-5-(*R)-(2-Methyl-6-phenoxypyridin-3-yl)-4-oxo-N-(pyrrolidin-3-yl)-4,5-dihydro-3H-1-thia-3,5,8-triazaacenaphthylene-2-carboxamide], which “BTK_I_binding pIC50” value is on record?
**A.** <6

**Q.** Which “BTK_I_binding pIC50” value does the source give for `C=CC(=O)N1CCC[C@@H](NC(=O)c2sc3nccc4c3c2NC(=O)N4c2ccc(OC3CCC3)nc2C)C1` (single isomer, unassigned) [Example 736, (R)—N-(1-Acryloylpiperidin-3-yl)-5-(*R)-(6-cyclobutoxy-2-methylpyridin-3-yl)-4-oxo-4,5-dihydro-3H-1-thia-3,5,8-triazaacenaphthylene-2-carboxamide] here?
**A.** <6

**Q.** How did the “BTK_I_binding pIC50” value turn out when `C=CC(=O)N1CCC[C@@H](NC(=O)c2sc3nccc4c3c2NC(=O)N4c2cnc(Oc3ccccc3)nc2C)C1` (single isomer, unassigned) [Example 746, (R)—N-(1-Acryloylpiperidin-3-yl)-5-(*S)-(4-methyl-2-phenoxypyrimidin-5-yl)-4-oxo-4,5-dihydro-3H-1-thia-3,5,8-triazaacenaphthylene-2-carboxamide] was run?
**A.** 8.1

**Q.** With `C=CC(=O)N1CCC[C@@H](NC(=O)c2sc3nccc4c3c2NC(=O)N4c2ccc(OC(C)C)nc2C)C1` (single isomer, unassigned) [Example 753, (R)—N-(1-Acryloylpiperidin-3-yl)-5-(*S)-(6-isopropoxy-2-methylpyridin-3-yl)-4-oxo-4,5-dihydro-3H-1-thia-3,5,8-triazaacenaphthylene-2-carboxamide] as the compound, how does the “BTK_I_binding pIC50” value read?
**A.** 6.2

**Q.** `C=CC(=O)N1CCC[C@@H](NC(=O)c2sc3nccc4c3c2NC(=O)N4c2ccc(OC(C)C)nc2C)C1` (single isomer, unassigned) [Example 757, (R)—N-(1-Acryloylpiperidin-3-yl)-5-(*R)-(6-isopropoxy-2-methylpyridin-3-yl)-4-oxo-4,5-dihydro-3H-1-thia-3,5,8-triazaacenaphthylene-2-carboxamide] was tested. Which “BTK_I_binding pIC50” value did it give?
**A.** <6

Same assay, conditions: Lanthascreen tracer competition, 60 minutes incubation; pIC50 = negative log of the IC50 in molar; read-out: BTK_I_binding pIC50 (converted)

**Q.** Which IC50 does the source give for `CC(C)(C)OC(=O)N1C[C@H](O)C[C@@H](NC(=O)c2sc3nccc4c3c2NC(=O)N4c2ccc(Oc3ccccc3)cc2)C1` (single isomer, unassigned) [Example 611] here?
**A.** 631 nM

**Q.** For `C=CC(=O)N[C@H]1COC[C@H]1NC(=O)c1sc2nccc3c2c1NC(=O)N3c1cnc(Oc2ccccc2)cc1C` (single isomer, unassigned) [Example 668, N-(cis-4-Acrylamidotetrahydrofuran-3-yl)-5-(*)-(4-methyl-6-phenoxypyridin-3-yl)-4-oxo-4,5-dihydro-3H-1-thia-3,5,8-triazaacenaphthylene-2-carboxamide], which IC50 is on record?
**A.** 15.8 nM

**Q.** With `Cc1cc(Oc2ccccc2)ccc1N1C(=O)Nc2c(C(=O)N[C@@H]3CCCN(C(=O)/C=C/CN4C[C@@H]5OCCO[C@@H]5C4)C3)sc3nccc1c23` (single isomer, unassigned) [Example 684, 5-(*S)-(2-Methyl-4-phenoxyphenyl)-4-oxo-N—((R)-1-((E)-4-((4aR,7aS)-tetrahydro-2H-[1,4]dioxino[2,3-c]pyrrol-6(3H)-yl)but-2-enoyl)piperidin-3-yl)-4,5-dihydro-3H-1-thia-3,5,8-triazaacenaphthylene-2-carboxamide] as the compound, how does the IC50 read?
**A.** 31.6 nM

**Q.** With `C=CC(=O)N[C@H]1COC[C@H]1NC(=O)c1sc2nccc3c2c1NC(=O)N3c1cnc(Oc2ccccc2)cc1C` (single isomer, unassigned) [Example 745, N-((3*S,4*R)-4-Acrylamidotetrahydrofuran-3-yl)-5-(*S)-(4-methyl-6-phenoxypyridin-3-yl)-4-oxo-4,5-dihydro-3H-1-thia-3,5,8-triazaacenaphthylene-2-carboxamide] as the compound, how does the IC50 read?
**A.** 7.94 nM

**Q.** How did the IC50 turn out when `C=CC(=O)N[C@@H]1COC[C@@H]1NC(=O)c1sc2nccc3c2c1NC(=O)N3c1cnc(Oc2ccccc2)cc1C` (single isomer, unassigned) [Example 752, N-((*3R,*4S)-4-Acrylamidotetrahydrofuran-3-yl)-5-(*S)-(4-methyl-6-phenoxypyridin-3-yl)-4-oxo-4,5-dihydro-3H-1-thia-3,5,8-triazaacenaphthylene-2-carboxamide] was run?
**A.** 398 nM

Same assay, conditions: unphosphorylated-BTK kinase domain, 50 nM Tracer 236, 60 minutes; pIC50 = negative log of the IC50 in molar

**Q.** For `Cc1cc(Oc2ccccc2)ccc1N1C(=O)Nc2c(C(=O)N[C@@H]3CCN(C(=O)/C=C/CN4C[C@@H]5OCCO[C@@H]5C4)C3)sc3nccc1c23` (single isomer, unassigned) [Example 555, 5-(*S)-(2-Methyl-4-phenoxyphenyl)-4-oxo-N—((R)-1-((E)-4-((4aR,7aS)-tetrahydro-2H-[1,4]dioxino[2,3-c]pyrrol-6(3H)-yl)but-2-enol)pyrrolidin-3-yl)-4,5-dihydro-3H-1-thia-3,5,8-triazaacenaphthylene-2-carboxamide], which “BTK_I_binding pIC50” value is on record?
**A.** 8.1
